Test results as given in patent publication US20240199623A1 (ILDONG PHARMACEUTICAL CO., LTD., priority 2020, published 2024).

Each compound was assayed against human wild type-CFTR (Homo sapiens, UniProt P13569) (assay: Cell-based YFP assay). Settings: CHO-K1 cells expressing human wild type-CFTR and YFP-H148Q/I152L; forskolin 20 μM = 100% activity; read-out: Cell-based YFP Assay (EC50) Concentration Range.
Parameters: expressed in transfected cells; host or cells: CHO-K1 (Chinese hamster ovary)
Summary of the method: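 I⁻-driven YFP fluorescence quenching at 37 °C: 2 s baseline, addition of 140 mM iodide solution, then 14 s of readings at 0.4 s intervals. Cells were CHO-K1 expressing human wild-type CFTR plus YFP-H148Q/I152L. EC50 derived from averaged triplicates.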

Chain of human wild type-CFTR (P13569 whole entry): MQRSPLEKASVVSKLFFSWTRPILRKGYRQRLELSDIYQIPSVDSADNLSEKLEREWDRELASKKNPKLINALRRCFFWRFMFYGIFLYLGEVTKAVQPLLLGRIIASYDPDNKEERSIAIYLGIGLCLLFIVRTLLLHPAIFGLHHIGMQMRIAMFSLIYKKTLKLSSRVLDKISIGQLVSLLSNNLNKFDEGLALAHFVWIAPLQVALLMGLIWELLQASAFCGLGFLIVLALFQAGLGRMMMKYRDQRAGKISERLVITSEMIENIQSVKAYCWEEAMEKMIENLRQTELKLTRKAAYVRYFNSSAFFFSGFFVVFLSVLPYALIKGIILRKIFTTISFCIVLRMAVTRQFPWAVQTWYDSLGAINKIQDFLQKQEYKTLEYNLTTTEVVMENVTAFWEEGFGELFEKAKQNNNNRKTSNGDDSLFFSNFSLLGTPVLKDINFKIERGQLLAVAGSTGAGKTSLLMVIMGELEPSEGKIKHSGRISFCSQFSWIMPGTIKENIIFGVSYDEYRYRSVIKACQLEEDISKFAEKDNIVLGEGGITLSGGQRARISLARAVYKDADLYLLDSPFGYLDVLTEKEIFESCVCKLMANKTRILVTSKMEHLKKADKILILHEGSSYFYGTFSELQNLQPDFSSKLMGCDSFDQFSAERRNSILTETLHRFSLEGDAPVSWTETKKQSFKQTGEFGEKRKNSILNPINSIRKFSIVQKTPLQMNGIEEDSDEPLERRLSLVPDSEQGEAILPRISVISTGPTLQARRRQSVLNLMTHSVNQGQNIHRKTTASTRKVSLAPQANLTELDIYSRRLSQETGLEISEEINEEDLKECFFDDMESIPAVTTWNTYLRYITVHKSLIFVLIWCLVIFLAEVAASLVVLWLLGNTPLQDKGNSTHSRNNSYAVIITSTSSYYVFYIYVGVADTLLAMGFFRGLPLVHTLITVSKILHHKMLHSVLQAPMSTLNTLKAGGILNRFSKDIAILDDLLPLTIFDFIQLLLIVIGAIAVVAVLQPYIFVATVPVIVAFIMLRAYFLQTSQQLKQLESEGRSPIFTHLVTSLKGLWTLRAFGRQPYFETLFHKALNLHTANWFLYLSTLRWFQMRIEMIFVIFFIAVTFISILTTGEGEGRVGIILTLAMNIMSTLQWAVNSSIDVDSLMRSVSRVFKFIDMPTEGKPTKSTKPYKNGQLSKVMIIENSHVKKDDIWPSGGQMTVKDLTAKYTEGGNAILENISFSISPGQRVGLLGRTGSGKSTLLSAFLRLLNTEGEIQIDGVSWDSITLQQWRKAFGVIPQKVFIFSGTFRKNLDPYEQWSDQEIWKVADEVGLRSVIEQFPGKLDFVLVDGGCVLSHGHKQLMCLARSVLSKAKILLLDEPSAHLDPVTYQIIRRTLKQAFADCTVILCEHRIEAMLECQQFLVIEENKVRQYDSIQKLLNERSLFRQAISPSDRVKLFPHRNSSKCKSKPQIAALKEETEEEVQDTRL

| EC50 [µM] | SMILES |
| --- | --- |
| ≥ 2 | CCOc1ccc(NC(=O)c2cc3nccc(-c4cc(OC)cc(OC)c4)n3n2)cc1 [Compound 315, 7-(3,5-dimethoxyphenyl)-N-(4-ethoxyphenyl)pyrazolo [1,5-a]pyrimidine-2-carboxamide] |
| ≥ 2 | CCOc1ccc(NC(=O)c2cc3nccc(-c4ccc(F)c(Cl)c4)n3n2)cc1 [Compound 316, 7-(3-chloro-4-fluorophenyl)-N-(4-ethoxyphenyl)pyrazolo [1,5-a]pyrimidine-2-carboxamide] |
| 0.2 to 2 | COc1ccc(-c2ccnc3cc(C(=O)N4CCN(C(=O)c5ccccc5OC)[C@@H](C)C4)nn23)cc1OC [Compound 317, (S)-(7-(3,4-dimethoxyphenyl)pyrazolo[1,5-a]pyrimidin-2-yl)(4-(2-methoxybenzoyl)-3-methylpiperazin-1-yl) methanone] |
| 0.2 to 2 | COc1cccc(C(=O)N2CCN(C(=O)c3cc4nccc(-c5ccc(OC)c(OC)c5)n4n3)C[C@@H]2C)c1 [Compound 318, (S)-(7-(3,4-dimethoxyphenyl)pyrazolo[1,5-a]pyrimidin-2-yl)(4-(3-methoxybenzoyl)-3-methylpiperazin-1-yl) methanone] |
| 0.2 to 2 | COc1ccc(C(=O)N2CCN(C(=O)c3cc4nccc(-c5ccc(OC)c(OC)c5)n4n3)C[C@@H]2C)cc1 [Compound 319, (S)-(7-(3,4-dimethoxyphenyl)pyrazolo[1,5-a]pyrimidin-2-yl)(4-(4-methoxybenzoyl)-3-methylpiperazin-1-yl) methanone] |
| 0.2 to 2 | COc1ccc(-c2ccnc3cc(C(=O)N[C@]45CC[C@](N6CCOCC6)(CC4)CC5)nn23)cc1OC [Compound 320, 7-(3,4-dimethoxyphenyl)-N-(4-morpholinobicyclo[2.2.2]octan-1-yl) pyrazolo[1,5-a]pyrimidine-2-carboxamide] |
| 0.2 to 2 | COc1ccc(-c2ccnc3cc(C(=O)N4CCN(C(=O)OC(C)(C)C)[C@H](C)C4)nn23)cc1OC [Compound 321, tert-butyl (R)-4-(7-(3,4-dimethoxyphenyl)pyrazolo [1,5-a]pyrimidine-2-carbonyl)-2-methylpiperazine-1-carboxylate] |
| ≥ 2 | COc1ccc(-c2ccnc3cc(C(=O)N4CCN[C@H](C)C4)nn23)cc1OC [Compound 322, (R)-(7-(3,4-dimethoxyphenyl)pyrazolo[1,5-a]pyrimidin-2-yl)(3-methylpiperazin-1-yl)methanone] |
| ≥ 2 | CCOc1ccc(NC(=O)c2cc3nccc(-c4ccc(N(C)C)cc4)n3n2)cc1 [Compound 324, 7-(4-(dimethylamino)phenyl)-N-(4-ethoxyphenyl)pyrazolo [1,5-a]pyrimidine-2-carboxamide] |
| < 0.2 | COc1ccc(NC(=O)c2cc3nccc(-c4ccc(OC)c(OC)c4)n3n2)c(F)c1 [Compound 325, 7-(3,4-dimethoxyphenyl)-N-(2-fluoro-4-methoxyphenyl)pyrazolo [1,5-a]pyrimidine-2-carboxamide] |
| 0.2 to 2 | COc1ccc(-c2ccnc3cc(C(=O)Nc4ccc(OC)c(F)c4F)nn23)cc1OC [Compound 326, N-(2,3-difluoro-4-methoxyphenyl)-7-(3,4-dimethoxyphenyl)pyrazolo [1,5-a]pyrimidine-2-carboxamide] |
| < 0.2 | COc1ccc(-c2ccnc3cc(C(=O)Nc4ccc(O)cn4)nn23)cc1OC [Compound 327, 7-(3,4-dimethoxyphenyl)-N-(5-hydroxypyridin-2-yl)pyrazolo[1,5-a] pyrimidine-2-carboxamide] |
| 0.2 to 2 | COCCOCOC(=O)[C@H]1CC[C@H](NC(=O)c2cc3nccc(-c4ccc(OC)c(OC)c4)n3n2)CC1 [Compound 328, (2-methoxyethoxy)methyl (1R,4R)-4-(7-(3,4-dimethoxyphenyl)pyrazolo [1,5-a]pyrimidine-2-carboxamido)cyclohexane-1-carboxylate] |
| < 0.2 | COCCOCOC(=O)c1ccc(NC(=O)c2cc3nccc(-c4ccc(OC)c(OC)c4)n3n2)cc1 [Compound 329, (2-methoxyethoxy)methyl 4-(7-(3,4-dimethoxyphenyl)pyrazolo [1,5-a]pyrimidine-2-carboxamido)benzoate] |
| 0.2 to 2 | CCOC(=O)[C@H]1CC[C@H](NC(=O)c2cc3nccc(-c4ccc(OC)c(OC)c4)n3n2)CC1 [Compound 330, ethyl (1R,4R)-4-(7-(3,4-dimethoxyphenyl)pyrazolo [1,5-a]pyrimidine-2-carboxamido)cyclohexane-1-carboxylate] |
| 0.2 to 2 | CCCOC(=O)[C@H]1CC[C@H](NC(=O)c2cc3nccc(-c4ccc(OC)c(OC)c4)n3n2)CC1 [Compound 331, propyl (1R,4R)-4-(7-(3,4-dimethoxyphenyl)pyrazolo [1,5-a]pyrimidine-2-carboxamido)cyclohexane-1-carboxylate] |
| 0.2 to 2 | CCCCOC(=O)[C@H]1CC[C@H](NC(=O)c2cc3nccc(-c4ccc(OC)c(OC)c4)n3n2)CC1 [Compound 332, butyl (1r,4r)-4-(7-(3,4-dimethoxyphenyl)pyrazolo [1,5-a]pyrimidine-2-carboxamido)cyclohexane-1-carboxylate] |
| ≥ 2 | CCCCCCCCCCOC(=O)[C@H]1CC[C@H](NC(=O)c2cc3nccc(-c4ccc(OC)c(OC)c4)n3n2)CC1 [Compound 333, decyl (1r,4r)-4-(7-(3,4-dimethoxyphenyl)pyrazolo [1,5-a]pyrimidine-2-carboxamido)cyclohexane-1-carboxylate] |
| < 0.2 | CCOC(=O)c1ccc(NC(=O)c2cc3nccc(-c4ccc(OC)c(OC)c4)n3n2)cc1 [Compound 334, ethyl 4-(7-(3,4-dimethoxyphenyl)pyrazolo[1,5-a]pyrimidine-2-carboxamido)benzoate] |
| < 0.2 | CCCOC(=O)c1ccc(NC(=O)c2cc3nccc(-c4ccc(OC)c(OC)c4)n3n2)cc1 [Compound 335, propyl 4-(7-(3,4-dimethoxyphenyl)pyrazolo [1,5-a]pyrimidine-2-carboxamido)benzoate] |
| 0.2 to 2 | CCCCOC(=O)c1ccc(NC(=O)c2cc3nccc(-c4ccc(OC)c(OC)c4)n3n2)cc1 [Compound 336, butyl 4-(7-(3,4-dimethoxyphenyl)pyrazolo[1,5-a]pyrimidine-2-carboxamido) benzoate] |
| ≥ 2 | CCCCCCCCCCOC(=O)c1ccc(NC(=O)c2cc3nccc(-c4ccc(OC)c(OC)c4)n3n2)cc1 [Compound 337, decyl 4-(7-(3,4-dimethoxy-phenyl)pyrazolo[1,5-a]pyrimidine-2-carboxamido)benzoate] |
| < 0.2 | COc1ccc(-c2ccnc3cc(C(=O)Nc4ccc(C(=O)N5CCN(c6ccccn6)CC5)cc4)nn23)cc1OC [Compound 338, 7-(3,4-dimethoxyphenyl)-N-(4-(4-(pyridin-2-yl)piperazine-1-carbonyl)phenyl)pyrazolo[1,5-a]pyrimidine-2-carboxamide] |
| ≥ 2 | CCOc1ccc(NC(=O)c2cc3nccc(-c4cc(OC)c(OC)cc4C)n3n2)cc1 [Compound 339, 7-(4,5-dimethoxy-2-methylphenyl)-N-(4-ethoxyphenyl)pyrazolo [1,5-a]pyrimidine-2-carboxamide] |
| ≥ 2 | COc1ccc(-c2ccnc3cc(C(=O)N[C@H]4CC[C@H](C(=O)NC5CCN(C6CCOCC6)CC5)CC4)nn23)cc1OC [Compound 340, 7-(3,4-dimethoxyphenyl)-N-((1R,4R)-4-((1-(tetrahydro-2H-pyran-4-yl)piperidin-4-yl)carbamoyl)cyclohexyl) pyrazolo[1,5-a] pyrimidine-2-carboxamide] |
